Results as given in ChEMBL document CHEMBL1201862, “PubChem BioAssay data set” (2004).
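Step 1: Grow cells in 96-well plates. Step 2: Expose to compound for 48 hours at 5 concentrations. Step 3: Interpolate endpoints linearly; if unreached, use highest concentration. GI50 marks 50% less growth.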 The source made the active and inactive calls. No stated cut-off is given here; in the data, active = GI50 up to about 1.1 µM and inactive = higher.

What was measured:
Experiment in all cases: growth of human tumour cells (NCI), 48 h
[1] = tested on: HL-60
[2] = tested on: TK-10
[3] = tested on: A498
[4] = tested on: DMS-273
[5] = tested on: EKVX
[6] = tested on: HCT-15
[7] = tested on: M19-MEL
[8] = tested on: KM12
[9] = tested on: SF-268
[10] = tested on: ACHN
[11] = tested on: SNB-19
[12] = tested on: UO-31
[13] = tested on: U-251
[14] = tested on: RXF 631
[15] = tested on: CCRF-CEM
[16] = tested on: RPMI-8226
[17] = tested on: HOP-62
[18] = tested on: HOP-18
[19] = tested on: DLD-1
[20] = tested on: SK-MEL-5
[21] = tested on: 786-0
[22] = tested on: SW-620
[23] = tested on: CAKI-1
[24] = tested on: SK-MEL-2
[25] = tested on: HOP-92
[26] = tested on: HCC 2998
[27] = tested on: COLO 205
[28] = tested on: SNB-78
[29] = tested on: KM-20L2
[30] = tested on: K562
[31] = tested on: NCI-H226
[32] = tested on: RXF 393
[33] = tested on: DMS-114
[34] = tested on: OVCAR-8
[35] = tested on: NCI-H522
[36] = tested on: M14
[37] = tested on: LOX IMVI
[38] = tested on: SK-MEL-28
[39] = tested on: SF-539
[40] = tested on: IGROV-1
[41] = tested on: NCI-H460
[42] = tested on: XF498
[43] = tested on: SN12C
[44] = tested on: OVCAR-4
[45] = tested on: SK-OV-3
[46] = tested on: LXFL 529
[47] = tested on: OVCAR-3
[48] = tested on: A549
[49] = tested on: SNB-75
[50] = tested on: Malme-3M
[51] = tested on: UACC-257
[52] = tested on: SF-295
[53] = tested on: MOLT-4
[54] = tested on: UACC-62
[55] = tested on: HCT-116
[56] = tested on: HT-29
[57] = tested on: SR
[58] = tested on: NCI-H23
[59] = tested on: OVCAR-5

Measured: GI50

O=C1Nc2ccc(Br)cc2/C1=N/Nc1ccc([N+](=O)[O-])cc1
27.2 µM: [6]
inactive: [1] 12.6 µM | [2] 18.3 µM | [3] 20.7 µM | [4] 9.95 µM | [5] 23.9 µM | [7] 17.1 µM | [8] 24.6 µM | [9] 17.5 µM | [10] 18.5 µM | [11] 19.3 µM | [12] 30.1 µM | [13] 18.7 µM | [14] 17.3 µM | [15] 33 µM | [16] 16.4 µM | [17] 18.9 µM | [18] 17.7 µM | [19] 31.5 µM | [20] 25 µM | [21] 11.4 µM | [22] 26.4 µM | [23] 22.8 µM | [24] 31 µM | [25] 13.6 µM | [26] 33.3 µM | [27] 27.2 µM | [28] 18.9 µM | [29] 72.1 µM | [30] 19.6 µM | [31] 18 µM | [32] 19.5 µM | [33] 18.5 µM | [34] 14.4 µM | [35] 31.3 µM | [36] 23.6 µM | [37] 21 µM | [38] 16.8 µM | [39] 14.2 µM | [40] 38.8 µM | [41] 17.4 µM | [42] 23.7 µM | [43] 19.3 µM | [44] 17.3 µM | [45] 19.5 µM | [46] 22.8 µM | [47] 19.9 µM | [48] 19 µM | [49] 19.3 µM | [50] 24.1 µM | [51] 20.3 µM | [52] 11.6 µM | [53] 34.3 µM | [54] 27.9 µM | [55] 17.1 µM | [56] 57.9 µM | [57] 22.8 µM | [58] 22 µM

CC1=C[C@@H]2Cc3occc3C(C)(C)[C@@H]2CC1
inactive: [1] 19.3 µM | [2] 22.4 µM | [3] 21.8 µM | [4] 13.6 µM | [5] 18 µM | [7] 15.6 µM | [8] 16.9 µM | [9] 20.2 µM | [10] 16 µM | [11] > 10 µM | [12] 19.2 µM | [13] 18.5 µM | [14] 20.4 µM | [15] 18.3 µM | [17] 32.4 µM | [18] 23.6 µM | [19] 17.7 µM | [59] 22.8 µM | [20] 17.9 µM | [21] 19.4 µM | [22] 17.1 µM | [23] 23.4 µM | [24] 10.9 µM | [25] 19.5 µM | [26] 21.4 µM | [27] 18.9 µM | [28] 27.7 µM | [29] 18.5 µM | [30] 21.1 µM | [31] 17.9 µM | [32] 18.7 µM | [33] 20.2 µM | [34] 19.5 µM | [35] 14.7 µM | [36] 22.3 µM | [37] 19.2 µM | [38] 24 µM | [39] 23.8 µM | [40] > 10 µM | [42] 15.3 µM | [43] 15.8 µM | [44] 29.4 µM | [45] 38.1 µM | [46] 37.5 µM | [47] 17.7 µM | [48] 22.9 µM | [49] 18.1 µM | [50] 20 µM | [51] 22.5 µM | [52] 19.5 µM | [53] 19.6 µM | [54] > 10 µM | [55] 19.4 µM | [56] 16.6 µM | [57] 14.5 µM | [58] 24.5 µM

N#CC(C#N)=Cc1ccc(C(O)P(=O)(O)O)cc1 (stereo not drawn)
inactive: [1] 93.5 µM | [2] > 100 µM | [3] > 100 µM | [4] > 100 µM | [5] > 100 µM | [7] > 100 µM | [8] > 100 µM | [9] > 100 µM | [10] > 100 µM | [11] > 100 µM | [12] > 100 µM | [13] > 100 µM | [14] > 100 µM | [15] 71.8 µM | [16] > 100 µM | [17] > 100 µM | [18] > 100 µM | [19] > 100 µM | [59] > 100 µM | [20] > 100 µM | [21] > 100 µM | [22] > 100 µM | [23] > 100 µM | [24] > 100 µM | [25] 39.6 µM | [26] > 100 µM | [27] > 100 µM | [28] > 100 µM | [29] > 100 µM | [30] 69.2 µM | [31] > 100 µM | [33] > 100 µM | [34] > 100 µM | [35] 56.6 µM | [36] > 100 µM | [37] > 100 µM | [38] > 100 µM | [39] > 100 µM | [40] > 100 µM | [41] > 100 µM | [42] > 100 µM | [43] > 100 µM | [44] > 100 µM | [45] > 100 µM | [46] > 100 µM | [47] > 100 µM | [48] > 100 µM | [50] > 100 µM | [51] > 100 µM | [52] > 100 µM | [53] > 100 µM | [54] > 100 µM | [55] > 100 µM | [56] > 100 µM | [58] > 100 µM
> 100 µM: [6]

COC(=O)/C(=N/O)C(C(=O)OC)C(=O)C(=O)Nc1c(Cl)cc(C)cc1S(=O)(=O)O (stereo not drawn)
inactive: [1] > 100 µM | [2] > 100 µM | [3] > 100 µM | [4] 18 µM | [5] > 100 µM | [7] > 100 µM | [8] > 100 µM | [9] > 100 µM | [10] > 100 µM | [11] > 100 µM | [12] > 100 µM | [13] > 100 µM | [14] > 100 µM | [15] 42.8 µM | [16] 23.5 µM | [17] > 100 µM | [18] > 100 µM | [19] > 100 µM | [59] > 100 µM | [20] > 100 µM | [21] > 100 µM | [23] > 100 µM | [24] > 100 µM | [25] > 100 µM | [26] > 100 µM | [27] > 100 µM | [28] > 100 µM | [29] > 100 µM | [30] 67 µM | [31] > 100 µM | [32] > 100 µM | [33] 56.1 µM | [34] > 100 µM | [35] 33.5 µM | [36] > 100 µM | [37] 41 µM | [38] > 100 µM | [39] > 100 µM | [40] > 100 µM | [41] 41.5 µM | [42] > 100 µM | [43] > 100 µM | [44] > 100 µM | [45] > 100 µM | [46] > 100 µM | [47] > 100 µM | [48] > 100 µM | [49] > 100 µM | [50] > 100 µM | [51] > 100 µM | [52] > 100 µM | [53] > 100 µM | [54] > 100 µM | [55] 43.8 µM | [56] > 100 µM | [57] 20.1 µM | [58] > 100 µM
> 100 µM: [6]
